# Experimental data from ChEMBL document CHEMBL1154504, “Discovery and development of heat shock protein 90 inhibitors” (Bioorg Med Chem, 2009).
# What was measured:
# HCT-116 [1] = experiment: cells; settings: Homo sapiens
# Description: Antiproliferative against human HCT116 cells
# [2] = biological target: T1, Heat shock protein HSP 90-beta (Homo sapiens, UniProt P08238); experiment: Binding affinity to Hsp90 in human SKBR3 cells; assay type: cell-based, SK-BR-3
# [3] = biological target: T1, Heat shock protein HSP 90-beta; experiment: Inhibition of Hsp90 in human MCF7 cells assessed as Her2 degradation; assay type: cell-based
# cells = settings: Homo sapiens, NCI60, read-out: GI
# Description: Growth inhibition of human NCI60 cells at 13 nM
# [4] = biological target: T1, Heat shock protein HSP 90-beta; experiment: Binding affinity to Hsp90 by fluorescence polarization assay
# MCF7 [5] = experiment: Cytotoxicity against human MCF7 cells; assay type: functional, cell-based
# [6] = biological target: T1, Heat shock protein HSP 90-beta; experiment: Inhibition of Hsp90
# [7] = Solubility in water; assay type: physicochemical
# NCI-N87 [8] = experiment: Antitumor activity in human NCI-N87 cells xenografted mouse assessed as inhibition of tumor growth at 200 mg/kg, po administered daily once for 5 days per week measured after 30 days; assay type: functional; settings: read-out: GI
# NCI-N87 [9] = experiment: Antitumor activity in human NCI-N87 cells xenografted mouse assessed as inhibition of tumor growth at 125 mg/kg, po administered daily once for 5 days per week measured after 5 weeks; assay type: functional; settings: read-out: GI
# NCI-N87 [10] = experiment: Antitumor activity in human NCI-N87 cells xenografted mouse assessed as inhibition of tumor growth at 60 mg/kg, po administered daily once for 5 days per week measured after 5 weeks; assay type: functional; settings: read-out: GI
# [11] = biological target: T1, Heat shock protein HSP 90-beta; experiment: Inhibition of Hsp90 assessed as Her2 degradation by cell based assay
# [12] = Inhibition of Rous sarcoma virus v-Src
# [13] = biological target: ATP-dependent molecular chaperone HSP82 (Saccharomyces cerevisiae S288c, UniProt P02829); experiment: Binding affinity to yeast Hsp90 ATPase activity
# ATP-dependent molecular chaperone HSP82, sequence (P02829 whole entry): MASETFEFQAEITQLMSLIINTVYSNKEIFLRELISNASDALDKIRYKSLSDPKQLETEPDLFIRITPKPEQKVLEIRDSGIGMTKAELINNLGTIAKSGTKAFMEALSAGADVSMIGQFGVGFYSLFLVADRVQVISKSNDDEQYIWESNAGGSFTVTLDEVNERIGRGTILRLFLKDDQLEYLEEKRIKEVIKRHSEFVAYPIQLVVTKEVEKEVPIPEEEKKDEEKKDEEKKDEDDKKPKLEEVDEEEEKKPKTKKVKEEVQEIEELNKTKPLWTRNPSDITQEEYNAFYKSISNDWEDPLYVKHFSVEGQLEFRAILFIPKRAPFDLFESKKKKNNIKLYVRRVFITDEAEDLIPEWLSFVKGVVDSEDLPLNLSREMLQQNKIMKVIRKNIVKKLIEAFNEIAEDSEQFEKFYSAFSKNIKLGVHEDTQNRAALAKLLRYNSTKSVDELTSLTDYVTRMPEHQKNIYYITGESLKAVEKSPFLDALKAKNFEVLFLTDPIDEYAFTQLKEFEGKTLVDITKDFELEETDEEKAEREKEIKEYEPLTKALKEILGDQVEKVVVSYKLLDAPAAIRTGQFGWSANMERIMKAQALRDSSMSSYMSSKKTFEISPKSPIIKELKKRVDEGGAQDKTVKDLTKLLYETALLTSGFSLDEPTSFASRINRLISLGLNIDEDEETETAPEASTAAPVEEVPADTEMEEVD
# [14] = biological target: T1, Heat shock protein HSP 90-beta; experiment: Inhibition of Hsp90 in human SKBR3 cells assessed as Her2 degradation; assay type: cell-based, SK-BR-3
# MCF7 [15] = experiment: Antitumor activity in human MCF7 cells xenografted mouse assessed as reduction of tumor burden at 200 mg/kg, ip administered alternative days; assay type: functional; parameters: scale not given: the % may be the effect or the level left; settings: route intraperitoneal
# [16] = biological target: Receptor tyrosine-protein kinase erbB-2 (Homo sapiens, UniProt P04626); experiment: Inhibition of Her2 in human SKBR3 cells; assay type: cell-based, SK-BR-3
# Receptor tyrosine-protein kinase erbB-2, sequence (P04626 whole entry): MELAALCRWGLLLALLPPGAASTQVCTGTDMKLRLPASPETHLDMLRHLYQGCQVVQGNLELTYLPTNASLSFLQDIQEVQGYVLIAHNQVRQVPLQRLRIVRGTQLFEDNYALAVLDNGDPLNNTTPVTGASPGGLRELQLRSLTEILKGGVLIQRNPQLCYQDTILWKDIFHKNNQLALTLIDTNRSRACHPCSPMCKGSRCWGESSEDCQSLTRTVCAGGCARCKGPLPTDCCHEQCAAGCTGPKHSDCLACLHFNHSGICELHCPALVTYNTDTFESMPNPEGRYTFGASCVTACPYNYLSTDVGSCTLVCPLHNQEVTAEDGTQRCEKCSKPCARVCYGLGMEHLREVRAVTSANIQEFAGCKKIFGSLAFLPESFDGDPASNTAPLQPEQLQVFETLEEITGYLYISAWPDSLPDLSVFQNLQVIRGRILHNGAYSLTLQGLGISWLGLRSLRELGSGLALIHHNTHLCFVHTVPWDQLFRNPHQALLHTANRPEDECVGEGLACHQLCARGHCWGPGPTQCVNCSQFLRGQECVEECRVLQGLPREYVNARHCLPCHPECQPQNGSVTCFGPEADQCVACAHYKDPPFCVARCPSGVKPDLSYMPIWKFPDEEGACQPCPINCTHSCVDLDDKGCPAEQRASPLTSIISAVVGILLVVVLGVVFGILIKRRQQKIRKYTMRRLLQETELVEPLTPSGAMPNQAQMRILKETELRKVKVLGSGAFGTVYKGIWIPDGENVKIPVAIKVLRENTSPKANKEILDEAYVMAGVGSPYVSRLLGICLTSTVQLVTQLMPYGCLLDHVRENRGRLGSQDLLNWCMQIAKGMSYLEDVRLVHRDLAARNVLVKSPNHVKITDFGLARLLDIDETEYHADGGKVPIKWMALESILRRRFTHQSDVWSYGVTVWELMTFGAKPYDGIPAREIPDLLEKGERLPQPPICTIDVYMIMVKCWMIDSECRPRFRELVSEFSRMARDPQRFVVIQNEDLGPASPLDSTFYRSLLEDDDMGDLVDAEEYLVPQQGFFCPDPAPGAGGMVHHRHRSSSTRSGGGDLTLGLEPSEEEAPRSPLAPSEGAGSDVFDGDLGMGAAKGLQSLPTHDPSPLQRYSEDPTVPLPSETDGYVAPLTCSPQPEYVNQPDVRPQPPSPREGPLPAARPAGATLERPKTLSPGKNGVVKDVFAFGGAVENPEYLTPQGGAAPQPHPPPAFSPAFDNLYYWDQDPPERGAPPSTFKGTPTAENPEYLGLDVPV
# HCT-116 [17] = experiment: Antitumor activity in human HCT116 cells xenografted mouse assessed as inhibition of tumor growth at 50 mg/kg, ip; assay type: functional; settings: HCT-116, ip, route intraperitoneal, read-out: GI
# HCT-116 [18] = experiment: Antitumor activity in human HCT116 cells xenografted mouse assessed as inhibition of tumor growth at 100 mg/kg, ip; assay type: functional; settings: HCT-116, ip, route intraperitoneal, read-out: GI
# T1 sequence (P08238 whole entry): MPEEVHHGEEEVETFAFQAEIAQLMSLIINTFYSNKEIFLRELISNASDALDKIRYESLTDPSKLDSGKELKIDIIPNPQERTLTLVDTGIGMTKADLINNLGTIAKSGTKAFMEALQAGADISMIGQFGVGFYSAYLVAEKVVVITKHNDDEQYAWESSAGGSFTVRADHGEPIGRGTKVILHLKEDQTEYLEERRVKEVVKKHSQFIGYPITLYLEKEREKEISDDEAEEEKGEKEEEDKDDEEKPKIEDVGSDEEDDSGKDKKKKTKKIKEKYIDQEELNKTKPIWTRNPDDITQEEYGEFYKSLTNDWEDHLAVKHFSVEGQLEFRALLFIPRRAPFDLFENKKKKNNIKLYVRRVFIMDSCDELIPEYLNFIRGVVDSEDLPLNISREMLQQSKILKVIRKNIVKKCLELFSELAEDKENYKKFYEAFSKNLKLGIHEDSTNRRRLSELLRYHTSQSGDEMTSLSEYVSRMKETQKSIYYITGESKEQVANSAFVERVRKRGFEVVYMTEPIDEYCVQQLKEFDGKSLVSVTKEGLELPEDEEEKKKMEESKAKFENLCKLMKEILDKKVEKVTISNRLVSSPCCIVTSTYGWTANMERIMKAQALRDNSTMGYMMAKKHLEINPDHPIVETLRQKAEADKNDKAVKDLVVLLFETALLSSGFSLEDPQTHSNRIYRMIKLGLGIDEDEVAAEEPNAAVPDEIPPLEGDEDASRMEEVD
smiles,measurement,setting,value
CCc1cc(-c2[nH]nc(C)c2-c2ccc3c(c2)OCCO3)c(O)cc1O,GI50,HCT-116 [1],4100 nM
CO[C@H]1C[C@H](C)Cc2cc(O)cc(c2)NC(=O)/C=C/CC[C@H](OC)[C@@H](OC(N)=O)/C(C)=C/[C@H](C)[C@H]1O,Kd,[2],16 nM
Nc1ncnc2c1nc(Sc1nc3cccc(Cl)c3s1)n2CCNC1CC1,IC50,[3],110 nM
COC1=C2C[C@@H](C)C[C@H](OC)[C@H](O)[C@@H](C)/C=C(\C)[C@H](OC(N)=O)[C@@H](OC)/C=C\C=C(/C)C(=O)NC(=CC1=O)C2=O [GELDANAMYCIN],inhibition of growth at 0.013 µM,cells,50%
Oc1cc(O)c(-c2noc3ccc(NCCN4CCOCC4)cc23)cc1Cl,IC50,[4],30 nM
C[C@@H]1C[C@H]2C[C@@H]2/C=C\C=C\C(=O)Cc2c(Cl)c(O)cc(O)c2C(=O)O1 [CYCLOPROPARADICICOL],IC50,MCF7 [5],43 nM
same,ED50,[6],160 nM
COc1ccc(I)c(Sc2nc3c(N)ncnc3n2CCNCC(C)(C)C)c1,solubility,[7],> 10000 µg/mL
same,inhibition in vivo at 200 mg/kg,NCI-N87 [8],70%
CC(C)(C)CNCCn1c(Sc2nc3cccc(Cl)c3s2)nc2c(N)ncnc21,IC50,[3],35 nM
CCCCn1c(Sc2nc3cccc(Cl)c3s2)nc2c(N)ncnc21,IC50,[3],180 nM
C[C@H]1CCCC(=O)CCCCCc2cc(O)cc(O)c2C(=O)O1 [ZEARALANONE],IC50,[6],90 nM
COc1c(C)ncc(Cn2cnc3c(Cl)nc(N)nc32)c1C,inhibition in vivo at 125 mg/kg,NCI-N87 [9],87%
same,inhibition in vivo at 60 mg/kg,NCI-N87 [10],83%
same,IC50,[11],20 nM
CS(=O)(=O)c1ccc(CN2CCN(c3cn[nH]c3-c3cc(Cl)c(O)cc3O)CC2)cc1,IC50,[4],740 nM
same,GI50,HCT-116 [1],3100 nM
COc1ccc(I)c(Sc2nc3c(N)ncnc3n2CCCNC(C)(C)C)c1,solubility,[7],> 10000 µg/mL
Oc1cc(O)c(-c2n[nH]cc2N2CCN(Cc3ccccc3)CC2)cc1Cl,GI50,HCT-116 [1],6500 nM
C[C@@H]1C[C@H]2O[C@@H]2\C=C/C=C/C(=N\OC(=O)N2CCCCC2)Cc2c(Cl)c(O)cc(O)c2C(=O)O1,IC50,[12],25 nM
Cc1[nH]nc(-c2cc(Cl)c(O)cc2O)c1-c1ccc2c(c1)OCCO2,IC50,[13],< 1000 nM
same,GI50,HCT-116 [1],4000 nM
Cc1nc(-c2c(-c3ccc(O)cc3O)noc2C(F)(F)F)cs1,IC50,[6],9000 nM
C#CCCCn1c(Sc2cc3c(cc2Br)OCO3)nc2c(N)ncnc21,IC50,[14],300 nM
same,EC50,[6],30 nM
C#CCCCn1c(Cc2cc(OC)c(OC)c(OC)c2Cl)nc2c(N)nc(F)nc21,Activity,MCF7 [15],72%
C[C@H]1C[C@H]2O[C@@H]2CC/C=C/C(=O)Cc2c(Cl)c(O)cc(O)c2C(=O)O1 [POCHONIN A],IC50,[6],90 nM
C=CCNc1c(O)cc2c(O)c1C[C@@H](C)C[C@H](OC)[C@H](O)[C@@H](C)/C=C(\C)[C@H](OC(N)=O)[C@@H](OC)/C=C\C=C(/C)C(=O)N2.Cl [RETASPIMYCIN HYDROCHLORIDE],solubility,[7],> 250000 µg/mL
Cc1cc(C#Cc2ccccc2/C=N/N2CCOC2=O)nc(N)n1,Ki,[4],4000 nM
CC(C)NCCCn1c(Cc2cc3c(cc2I)OCO3)nc2c(N)nc(F)nc21,IC50,[14],90 nM
same,EC50,[4],22 nM
O=S(=O)(Nc1ccc(O)c(-c2c(O)ccc3ccccc23)c1)c1cc(Cl)ccc1Cl,GI50,HCT-116 [1],29000 nM
C[C@@H]1C[C@H]2O[C@@H]2/C=C\C=C\C(=O)Cc2c(Cl)c(O)cc(O)c2C(=O)O1 [RADICICOL],IC50,MCF7 [5],23 nM
C[C@@H]1C/C=C/CC/C=C/C(=O)Cc2c(Cl)c(O)cc(O)c2C(=O)O1 [POCHONIN D],IC50,[6],80 nM
CCNC(=O)c1noc(-c2cc(C(C)C)c(O)cc2O)c1-c1ccc(CN(CC)CC)cc1,GI50,HCT-116 [1],6 nM
C=CCNC1=C2C[C@@H](C)C[C@H](OC)[C@H](O)[C@@H](C)/C=C(\C)[C@H](OC(N)=O)[C@@H](OC)/C=C\C=C(/C)C(=O)NC(=CC1=O)C2=O [TANESPIMYCIN],IC50,[16],31 nM
same,solubility,[7],50 µg/mL
CCNC(=O)c1noc(-c2cc(C(C)C)c(O)cc2O)c1-c1ccc(CN2CCOCC2)cc1 [LUMINESPIB],inhibition in vivo at 50 mg/kg,HCT-116 [17],50%
CCNC(=O)c1noc(-c2cc(Cl)c(O)cc2O)c1-c1ccc(OC)cc1,inhibition in vivo at 100 mg/kg,HCT-116 [18],30%
